Experimental data published in patent US8133884B2, “Compounds for the treatment of hepatitis C” (priority 2008, dated 2012).

Legend:
HCV replicon = HCV replicon assay (FRET or luciferase reporter); format: cell-based; details: Hepatitis C virus, one of the methods described
From the text: To perform the HCV FRET screening assay, 96-well cell culture plates were used, The FRET peptide (Anaspec, Inc.) (Taliani et al., Anal. Biochem., 240:60-67 (1996)) contains a fluorescence donor, EDANS, near one end of the peptide and an acceptor, DABCYL, near the other end. The fluorescence of the peptide is quenched by […] resonance energy transfer (RET) between the donor and the acceptor, but as the NS3 protease cleaves the peptide the products are released from RET quenching and the fluorescence of the donor becomes apparent. The assay reagent was made as follows: 5× cell Luciferase cell culture lysis reagent from Promega (#E153A) diluted to 1× with dH2O, NaCl added to 150 mM final, the FRET peptide diluted to 20 μM final from a 2 mM stock.
To prepare plates, HCV replicon cells, with or without a Renilla luciferase reporter gene, were trypsinized and placed into each well of a 96-well plate with titrated test compounds added in columns 3 through 12; columns 1 and 2 contained a control compound (HCV protease inhibitor), and the bottom row contained cells without compound. The plates were then placed in a CO2 incubator at 37° C.
Subsequent to addition of the test compounds described above (FRET Assay Preparation), at various times the plate was removed and Alamar blue solution (Trek Diagnostics, #00-100) was added per well as a measure of cellular toxicity. After reading in a CYTOFLUOR® 4000 instrument (PE Biosystems), plates were rinsed with PBS and then used for FRET assay by the addition of 30 ul of the FRET peptide assay reagent described above (FRET Assay Preparation) per well. The plate was then placed into the CYTOFLUOR® 4000 instrument which had been set to 340 excite/490 emission, automatic mode for 20 cycles and the plate read in a kinetic mode. Typically, the signal to noise using an endpoint analysis after the reads was at least three-fold. Alternatively, after Alamar blue reading, plates were rinsed with PBS, 50 ul of DMEM (high glucose) without phenol red was added and plates were then used for luciferase assay using the Promega DUAL-GLO® Luciferase Assay System.
Compound analysis was determined by quantification of the relative HCV replicon inhibition and the relative cytotoxicity values. To calculate cytoxicity values, the average Alamar Blue fluorescence signals from the control wells were set as 100% non-toxic. The individual signals in each of the compound test wells were then divided by the average control signal and multiplied by 100% to determine […]. To calculate the HCV replicon inhibition values, an average background value was obtained from the two wells containing the highest amount of HCV protease inhibitor at the end of the assay period. These numbers were similar to those obtained from naïve Huh-7 cells.
The background numbers were then subtracted from the average signal obtained from the control wells and this number was used as 100% activity. The individual signals in each of the compound test wells were then divided by the averaged control values after background subtraction and multiplied by 100% to determine percent activity. EC50 values for a protease inhibitor titration were calculated as the concentration which caused a 50% reduction in FRET or luciferase activity. The two numbers generated for the compound plate, percent cytoxicity and percent activity were used to determine compounds of interest for further analysis.
The HCV replicon luciferase assay was developed to monitor the inhibitory effects of compounds described in the disclosure on HCV viral replication. Utilization of a replicon luciferase reporter assay was first described by Krieger et al (Krieger, N. et al., J. Virology, 75(10):4614-4624 (2001)). HUH-7 cells, constitutively expressing the HCV replicon, were grown in Dulbecco's Modified Eagle Media (DMEM) (Gibco-BRL) containing 10% Fetal calf serum (FCS) (Sigma) and 1 mg/ml G418 (Gibco-BRL). […]

HCV NS5B = target: T1, HCV NS5B (Hepatitis C virus genotype 1b, UniProt Q9WMX2); assay: Modified HCV NS5B RdRp enzyme assay (preincubation protocol); format: biochemical
T1 construct: The protein was expressed with an 18 amino acid C-terminal truncation to enhance the solubility; made in house; host or cells: E. coli BL21(DE3)
Protocol: The cDNA encoding the NS5B protein of HCV, genotype 1b, was cloned into the pET21a expression vector. The protein was expressed with an 18 amino acid C-terminal truncation to enhance the solubility. The E. coli competent cell line BL21(DE3) was used for expression of the protein. Cultures were grown at 37° C. for ˜4 hours until the cultures reached an optical density of 2.0 at 600 nm. The cultures were cooled to 20° C. and induced with 1 mM IPTG. Fresh ampicillin was added to a final concentration of 50 μg/ml and the cells were grown overnight at 20° C.
Cell pellets (3 L) were lysed for purification to yield 15-24 mgs of purified NS5B. The lysis buffer consisted of 20 mM Tris-HCl, pH 7.4, 500 mM NaCl, 0.5% triton X-100, 1 mM DTT, 1 mM EDTA, 20% glycerol, 0.5 mg/ml lysozyme, 10 mM MgCl2, 15 ug/ml deoxyribonuclease I, and Complete TM protease inhibitor tablets (Roche). After addition of the lysis buffer, frozen cell pellets were resuspended using a tissue homogenizer. To reduce the viscosity of the sample, aliquots of the lysate were sonicated on ice using a microtip attached to a Branson sonicator. The sonicated lysate was centrifuged at 100,000×g for 1 hr at 4° C. and filtered through a 0.2 μm filter unit (Corning).
The protein was purified using three sequential chromatography steps: Heparin sepharose CL-6B, polyU sepharose 4B, and […] SP sepharose (Pharmacia). The chromatography buffers were identical to the lysis buffer but contained no lysozyme, deoxyribonuclease I, MgCl2 or protease inhibitor and the NaCl concentration of the buffer was adjusted according to the requirements for charging the protein onto the column. Each column was eluted with a NaCl gradient which varied in length from 5-50 column volumes depending on the column type. After the final chromatography step, the resulting purity of the enzyme is >90% based on SDS-PAGE analysis. The enzyme was aliquoted and stored at −80° C.
HCV RdRp genotype 1b assays were run in a final volume of 60 μl in 96 well plates (Costar 3912). The assay buffer is composed of 20 mM Hepes, pH 7.5, 2.5 mM KCl, 2.5 mM MgCl2, 1 mM DTT, 1.6 U RNAse inhibitor (Promega N2515), 0.1 mg/ml BSA (Promega R3961), and 2% glycerol. All compounds were serially diluted (3-fold) in DMSO and diluted further in water such that the final concentration of DMSO in the assay was 2%. HCV RdRp genotype 1b enzyme was used at a final concentration of 28 nM. A polyA template was used at 6 nM, and a biotinylated oligo-dT12 primer was used at 180 nM final concentration. Template was obtained commercially (Amersham 27-4110). Biotinylated primer was prepared by Sigma Genosys. 3H-UTP was used at 0.6 μCi (0.29 μM total UTP). Reactions were initiated by the addition of enzyme, incubated at 30° C. for 60 min, and stopped by adding 25 μl of 50 mM EDTA containing SPA beads (4 μg/μl, Amersham RPNQ 0007). Plates were read on a Packard TOPCOUNT® NXT after >1 hr incubation at room temperature.
A modified enzyme assay was performed essentially as described for the standard enzyme assay except for the following: The biotinylated oligo dT12 primer was precaptured on streptavidin-coated SPA beads by mixing primer and beads in assay buffer and incubating at room temperature for one hour. Unbound primer was removed after centrifugation. The primer-bound beads were resuspended in 20 mM Hepes buffer, pH 7.5 and used in the assay at final concentrations of 20 nM primer and 0.67 μg/μl beads. Order of addition in the assay: enzyme (14 nM) was added to diluted compound followed by the addition of a mixture of template (0.2 nM), 3H-UTP (0.6 μCi, 0.29 μM), and primer-bound beads, to initiate the reaction; concentrations given are final. Reactions were allowed to proceed for 4 hours at 30° C.
IC50 values for compounds were determined using seven different [I]. IC50 values were calculated from the inhibition using the formula y=A+((B−A)/(1+((C/x)^D))).

T1 sequence (Q9WMX2 2420-2992): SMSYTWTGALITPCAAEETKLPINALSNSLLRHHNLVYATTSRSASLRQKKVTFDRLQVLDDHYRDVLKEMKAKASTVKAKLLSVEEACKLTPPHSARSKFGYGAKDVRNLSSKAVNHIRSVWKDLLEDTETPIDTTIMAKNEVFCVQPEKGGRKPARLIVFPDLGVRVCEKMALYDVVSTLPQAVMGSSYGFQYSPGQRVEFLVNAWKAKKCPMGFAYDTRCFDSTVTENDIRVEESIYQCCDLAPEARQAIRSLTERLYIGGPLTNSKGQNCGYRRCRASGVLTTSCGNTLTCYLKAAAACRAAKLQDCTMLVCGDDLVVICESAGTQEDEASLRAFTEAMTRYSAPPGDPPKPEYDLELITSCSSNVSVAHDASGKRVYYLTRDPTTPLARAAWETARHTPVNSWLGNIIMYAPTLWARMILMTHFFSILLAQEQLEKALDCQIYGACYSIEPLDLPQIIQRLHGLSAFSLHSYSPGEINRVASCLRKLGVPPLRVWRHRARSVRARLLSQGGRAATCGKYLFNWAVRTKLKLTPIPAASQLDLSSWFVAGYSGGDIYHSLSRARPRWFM

Row | Structure (SMILES) | EC50 (HCV replicon; class symbol) | EC50 (HCV replicon; exact value) | IC50 (HCV NS5B; class symbol) | IC50 (HCV NS5B; exact value)
1 | COc1ccc2c(c1)C=C(c1c(C(=O)N3C4CCC3CN(C)C4)cnn1C1CCC1)Cn1c-2c(C2CCCCC2)c2ccc(C(=O)NS(=O)(=O)CC(C)C)cc21 | 1.7 to 500 nM | 8.1 nM | 1.7 to 500 nM | 3.3 nM
2 | COc1ccc2c(c1)C=C(c1c(C(=O)N3CCCOCC3)cnn1C1CCC1)Cn1c-2c(C2CCCCC2)c2ccc(C(=O)NS(=O)(=O)C(C)C)cc21 | 1.7 to 500 nM | 7.6 nM | 1.7 to 500 nM | 5.4 nM
3 | COc1ccc2c(c1)C=C(c1c(C(=O)N3C[C@@H](C)O[C@@H](C)C3)ncn1C1CC1)Cn1c-2c(C2CCCCC2)c2ccc(C(=O)NS(=O)(=O)C(C)C)cc21 | 1.7 to 500 nM | – | 1.7 to 500 nM | –
4 | COc1ccc2c(c1)C=C(c1c(C(=O)N3CCOCC3)ncn1C1CC1)Cn1c-2c(C2CCCCC2)c2ccc(C(=O)NS(=O)(=O)C(C)C)cc21 | 1.7 to 500 nM | – | 1.7 to 500 nM | –
5 | COc1ccc2c(c1)C=C(c1c(C(=O)N3C4CCCC3COC4)cnn1C1CCC1)Cn1c-2c(C2CCCCC2)c2ccc(C(=O)NS(=O)(=O)C(C)C)cc21 | 1.7 to 500 nM | – | 1.7 to 500 nM | –
6 | COc1ccc2c(c1)C=C(c1c(C(=O)N3C[C@@H](C)O[C@@H](C)C3)ncn1C1CCC1)Cn1c-2c(C2CCCCC2)c2ccc(C(=O)NS(=O)(=O)C(C)C)cc21 | 1.7 to 500 nM | – | 1.7 to 500 nM | –
7 | COc1ccc2c(c1)C=C(c1c(C(=O)N3CCOCC3)ncn1C1CCC1)Cn1c-2c(C2CCCCC2)c2ccc(C(=O)NS(=O)(=O)C(C)C)cc21 | 1.7 to 500 nM | 70 nM | 1.7 to 500 nM | 9.7 nM
8 | COc1ccc2c(c1)C=C(c1c(C(=O)N3CCN(C4CCCC4)CC3)cnn1C1CCC1)Cn1c-2c(C2CCCCC2)c2ccc(C(=O)NS(=O)(=O)C(C)C)cc21 | 1.7 to 500 nM | – | 1.7 to 500 nM | –
9 | COc1ccc2c(c1)C=C(c1c(C(=O)N3C[C@@H](C)O[C@@H](C)C3)c(C)nn1C1CCC1)Cn1c-2c(C2CCCCC2)c2ccc(C(=O)NS(=O)(=O)C(C)C)cc21 | 1.7 to 500 nM | 10 nM | 1.7 to 500 nM | 6.4 nM
10 | CCN1C[C@@H]2C[C@H]1CN2C(=O)c1cnn(C2CCC2)c1C1=Cc2cc(OC)ccc2-c2c(C3CCCCC3)c3ccc(C(=O)NS(=O)(=O)N(C)C)cc3n2C1 | 1.7 to 500 nM | – | 1.7 to 500 nM | –
11 | CCN1C[C@@H]2C[C@H]1CN2C(=O)c1c(C)nn(C2CCC2)c1C1=Cc2cc(OC)ccc2-c2c(C3CCCCC3)c3ccc(C(=O)NS(=O)(=O)N(C)C)cc3n2C1 | 1.7 to 500 nM | 10 nM | 1.7 to 500 nM | 3.4 nM
12 | CCN1C[C@@H]2C[C@H]1CN2C(=O)c1c(C)nn(C2CCC2)c1C1=Cc2cc(OC)ccc2-c2c(C3CCCCC3)c3ccc(C(=O)NS(=O)(=O)C(C)C)cc3n2C1 | 1.7 to 500 nM | – | 1.7 to 500 nM | –
13 | COc1ccc2c(c1)C=C(c1c(C(=O)N3C4CCC3CN(C)C4)cnn1C1CCC1)Cn1c-2c(C2CCCCC2)c2ccc(C(=O)NS(=O)(=O)N(C)C)cc21 | 1.7 to 500 nM | – | 1.7 to 500 nM | –
14 | COc1ccc2c(c1)C=C(c1c(C(=O)N3C4CCC3CN(C)C4)c(C)nn1C1CCC1)Cn1c-2c(C2CCCCC2)c2ccc(C(=O)NS(=O)(=O)N(C)C)cc21 | 1.7 to 500 nM | – | 1.7 to 500 nM | –
15 | COc1ccc2c(c1)C=C(c1c(C(=O)N3C4CCC3CN(C)C4)c(C)nn1C1CCC1)Cn1c-2c(C2CCCCC2)c2ccc(C(=O)NS(=O)(=O)C(C)C)cc21 | 1.7 to 500 nM | – | 1.7 to 500 nM | –
16 | COc1ccc2c(c1)C=C(c1c(C(=O)N3CCOCC3)c(C)nn1C1CCC1)Cn1c-2c(C2CCCCC2)c2ccc(C(=O)NS(=O)(=O)C(C)C)cc21 | 1.7 to 500 nM | – | 1.7 to 500 nM | –
17 | COC[C@@H]1CN(C(=O)c2c(C)nn(C3CCC3)c2C2=Cc3cc(OC)ccc3-c3c(C4CCCCC4)c4ccc(C(=O)NS(=O)(=O)C(C)C)cc4n3C2)CCO1 | 1.7 to 500 nM | – | 1.7 to 500 nM | –
18 | COc1ccc2c(c1)C=C(c1c(C(=O)N3C4CCC3COC4)c(C)nn1C1CCC1)Cn1c-2c(C2CCCCC2)c2ccc(C(=O)NS(=O)(=O)C(C)C)cc21 | 1.7 to 500 nM | – | 1.7 to 500 nM | –
19 | COc1ccc2c(c1)C=C(c1c(C(=O)N3C[C@@H]4C[C@H]3CO4)c(C)nn1C1CCC1)Cn1c-2c(C2CCCCC2)c2ccc(C(=O)NS(=O)(=O)C(C)C)cc21 | 1.7 to 500 nM | – | 1.7 to 500 nM | –
20 | COc1ccc2c(c1)C=C(c1c(C(=O)N3C4CCCC3COC4)c(C)nn1C1CCC1)Cn1c-2c(C2CCCCC2)c2ccc(C(=O)NS(=O)(=O)C(C)C)cc21 | 1.7 to 500 nM | – | 1.7 to 500 nM | –
21 | COc1ccc2c(c1)C=C(c1c(C(=O)N3CCN(C)CC3)c(C)nn1C1CCC1)Cn1c-2c(C2CCCCC2)c2ccc(C(=O)NS(=O)(=O)C(C)C)cc21 | 1.7 to 500 nM | – | 1.7 to 500 nM | –
22 | COc1ccc2c(c1)C=C(c1c(C(=O)N3C[C@@H](C)N(C)[C@@H](C)C3)c(C)nn1C1CCC1)Cn1c-2c(C2CCCCC2)c2ccc(C(=O)NS(=O)(=O)C(C)C)cc21 | 1.7 to 500 nM | – | 1.7 to 500 nM | –
